This experiment addresses T1, human M4 muscarinic acetylcholine receptor (Homo sapiens, UniProt P08173).
T1 construct: expressed in transfected cells; host or cells: CHO-K1
T1 sequence (P08173 1-479): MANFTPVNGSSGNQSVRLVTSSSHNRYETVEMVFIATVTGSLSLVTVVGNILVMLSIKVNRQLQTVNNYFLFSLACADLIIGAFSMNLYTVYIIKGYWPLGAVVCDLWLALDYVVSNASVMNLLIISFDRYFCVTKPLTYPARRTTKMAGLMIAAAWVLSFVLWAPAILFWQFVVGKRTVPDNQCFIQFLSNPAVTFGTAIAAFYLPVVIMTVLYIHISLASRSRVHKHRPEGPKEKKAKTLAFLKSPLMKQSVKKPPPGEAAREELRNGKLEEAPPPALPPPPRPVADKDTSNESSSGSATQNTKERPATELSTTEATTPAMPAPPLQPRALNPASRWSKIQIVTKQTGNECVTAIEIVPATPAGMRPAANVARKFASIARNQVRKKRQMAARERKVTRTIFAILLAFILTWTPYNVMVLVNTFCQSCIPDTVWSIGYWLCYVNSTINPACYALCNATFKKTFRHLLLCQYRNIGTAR
As to the kind of experiment: human FLIPR-based M4 PAM assay (Ca2+ mobilization, CHO-K1 cells with human M4 receptor and Gαqi5). It is filed as cell-based. The conditions noted are these: acetylcholine at 20% of maximum response, read-out: M4 PAM IP. The essentials:
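Calcium-mobilization (FLIPR) readout in dye-loaded CHO-K1 cells co-expressing human M4 receptor and Gαqi5. Potentiation measured against acetylcholine at a concentration giving 20% of maximal response, with an optional 70% addition; the reported value is the curve inflection point from a 4-parameter logistic fit.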
`Cc1cc2c(nc1N1CCC(OCc3ccncc3)CC1)CNC2=O` [Example 175A, 3-methyl-2-(4-(pyridin-4-ylmethoxy)piperidin-1-yl)-6,7-dihydro-5H-pyrrolo[3,4-b]pyridin-5-one]: the EC50 is 3.1 µM.

On to `Cc1c(N2CCC(Oc3ccc4c(c3)COC4)CC2)nc2c(c1C)C(=O)N(C)[C@@H]2CO` (single isomer, unassigned) [Example 337A], for which the EC50 was 0.02 µM.

`Cc1cc2c(nc1N1CCC(Oc3ccc4c(c3)COC4)CC1)CN([C@H](C)CO)C2=O` [Example 268C, (R)-2-(4-((1,3-dihydro-2-benzofuran-5-yl)oxy)piperidin-1-yl)-6-(1-hydroxypropan-2-yl)-3-methyl-6,7-dihydro-5H-pyrrolo[3,4-b]pyridin-5-one]: the EC50 was 0.053 µM.

On to `Cc1c(N2CCC(OC[C@@]3(C)CC3(F)F)CC2)nc2c(c1C)C(=O)NC2` (single isomer, unassigned) [Example 329A], for which the EC50 came to 0.047 µM.

In the case of `Cc1cc2c(nc1N1CCC(Oc3ccc4c(c3)C(=O)OC4)CC1)CNC2=O` [Example 110, 3-methyl-2-(4-((3-oxo-1,3-dihydro-2-benzofuran-5-yl)oxy)piperidin-1-yl)-6,7-dihydro-5H-pyrrolo[3,4-b]pyridin-5-one], the EC50 is 0.039 µM.

In the case of `Cc1cc2c(nc1N1CCC(Oc3cccc(C#N)c3)CC1)[C@@H](CO)N(C)C2=O` [Example 345, (S)-3-((1-(7-(hydroxymethyl)-3,6-dimethyl-5-oxo-6,7-dihydro-5H-pyrrolo[3,4-b]pyridin-2-yl)piperidin-4-yl)oxy)benzonitrile], the EC50 was determined as 0.023 µM.

As for `CO[C@@H]1Cc2ccc(OC3CCN(c4nc5c(c(C)c4C)C(=O)N(CCO)C5)CC3)cc2C1` [Example 267C, (R)-6-(2-hydroxyethyl)-2-(4-((2-methoxy-2,3-dihydro-1H-inden-5-yl)oxy)piperidin-1-yl)-3,4-dimethyl-6,7-dihydro-5H-pyrrolo[3,4-b]pyridin-5-one], the EC50 amounted to 0.109 µM.

In the case of `Cc1cc2c(nc1N1CCC(Oc3ccc(F)cc3)CC1)CN(CCO)C2=O` [Example 264, 2-(4-(4-Fluorophenoxy)piperidin-1-yl)-6-(2-hydroxyethyl)-3-methyl-6,7-dihydro-5H-pyrrolo[3,4-b]pyridin-5-one], the EC50 was found to be 0.036 µM.

Turning to `Cc1cc2c(nc1N1CCC(Oc3ccccc3)CC1)CN(C1CC1)C2=O` [Example 250, 6-cyclopropyl-3-methyl-2-(4-phenoxypiperidin-1-yl)-6,7-dihydro-5H-pyrrolo[3,4-b]pyridin-5-one], the EC50 came out at 0.149 µM.

For the compound `CO[C@H]1Cc2ccc(OC3CCN(c4nc5c(c(C)c4C)C(=O)NC5)CC3)cc2C1` [Example 335B, (5)-2-(4-((2-methoxy-2,3-dihydro-1H-inden-5-yl)oxy)piperidin-1-yl)-3,4-dimethyl-6,7-dihydro-5H-pyrrolo[3,4-b]pyridin-5-one], the EC50 turned out to be 0.259 µM.

For `Cc1cc2c(nc1N1CCC(Oc3cnc4c(c3)OCC4)CC1)CNC2=O` [Example 216A, 2-(4-((2,3-dihydrofuro[3,2-b]pyridin-6-yl)oxy)piperidin-1-yl)-3-methyl-6,7-dihydro-5H-pyrrolo[3,4-b]pyridin-5-one], the EC50 was 0.288 µM.

As to `CCc1cc2c(nc1N1CCC(Oc3ccc4c(c3)COCC4)CC1)[C@H](CO)N(C)C2=O` [Example 362, (R)-3-ethyl-7-(hydroxymethyl)-2-(4-(isochroman-7-yloxy)piperidin-1-yl)-6-methyl-6,7-dihydro-5H-pyrrolo[3,4-b]pyridin-5-one], the EC50 stood at 1.29 µM.

As for `Cc1c(N2CCC(Oc3ccc4c(c3)C[C@H](O)C4)CC2)nc2c(c1C)C(=O)NC2` [Example 334A, (R)-2-(4-((2-hydroxy-2,3-dihydro-1H-inden-5-yl)oxy)piperidin-1-yl)-3,4-dimethyl-6,7-dihydro-5H-pyrrolo[3,4-b]pyridin-5-one], the EC50 amounted to 0.067 µM.

Consider `Cc1cc2c(nc1N1CCC(Oc3ccccc3Cl)CC1)CNC2=O` [Example 73, 2-(4-(2-chlorophenoxy)piperidin-1-yl)-3-methyl-6,7-dihydro-5H-pyrrolo[3,4-b]pyridin-5-one], for which the EC50 was found to be 2.25 µM.

On to `COc1ccc(OC2CCN(c3nc4c(cc3C)C(=O)NC4=O)CC2)cn1` [Example 297, 2-(4-((6-Methoxypyridin-3-yl)oxy)piperidin-1-yl)-3-methyl-5H-pyrrolo[3,4-b]pyridine-5,7(6H)-dione], for which the EC50 amounted to 0.022 µM.

Turning to `COc1ncc(OC2CCN(c3nc4c(cc3C)C(=O)NC4)CC2)cn1` [Example 94, 2-(4-((2-methoxypyrimidin-5-yl)oxy)piperidin-1-yl)-3-methyl-6,7-dihydro-5H-pyrrolo[3,4-b]pyridin-5-one], the EC50 is 1.73 µM.

`Cc1cc2c(nc1N1CCC(Oc3ccc(O[C@H](C)CO)nc3)CC1)CNC2=O` (single isomer, unassigned) [Example 141A]: the EC50 amounted to 0.082 µM.

As for `COC1(COC2CCN(c3nc4c(cc3C)C(=O)NC4)CC2)CC1` [Example 193, 2-(4-((1-methoxycyclopropyl)methoxy)piperidin-1-yl)-3-methyl-6,7-dihydro-5H-pyrrolo[3,4-b]pyridin-5-one], the EC50 is 1.22 µM.

For `Cc1cc2c(nc1N1CCC(Oc3cccnc3)CC1)CNC2=O` [Example 68, 3-methyl-2-(4-(pyridin-3-yloxy)piperidin-1-yl)-6,7-dihydro-5H-pyrrolo[3,4-b]pyridin-5-one], the EC50 stood at 0.079 µM.

On to `Cc1cc2c(nc1N1CCC(Oc3ccc4c(c3)COCC4)CC1)CNC2=O` [Example 112, 2-(4-(isochroman-7-yloxy)piperidin-1-yl)-3-methyl-6,7-dihydro-5H-pyrrolo[3,4-b]pyridin-5-one], for which the EC50 is 0.02 µM.

On to `CCc1cc2c(nc1N1CC[C@@H](Oc3ccc4c(c3)COC4)[C@H](F)C1)CNC2=O` [Example 217, 2-((3R,4R)-4-((1,3-dihydro-2-benzofuran-5-yl)oxy)-3-fluoropiperidin-1-yl)-3-ethyl-6,7-dihydro-5H-pyrrolo[3,4-b]pyridin-5-one], for which the EC50 came out at 0.042 µM.

On to `CC(=O)N1CCc2ccc(OC3CCN(c4nc5c(cc4C)C(=O)NC5)CC3)cc2C1` [Example 295, 2-(4-((2-acetyl-1,2,3,4-tetrahydro-isoquinolin-7-yl)oxy)piperidin-1-yl)-3-methyl-6,7-dihydro-5H-pyrrolo[3,4-b] pyridin-5-one], for which the EC50 stood at 0.137 µM.

Consider `COc1ccc(OC2CCN(c3nc4c(cc3C)C(=O)N(C[C@@H](O)C(F)(F)F)C4)CC2)cn1` [Example 318, (R)-2-(4-((6-Methoxypyridin-3-yl)oxy)piperidin-1-yl)-3-methyl-6-(3,3,3-trifluoro-2-hydroxypropyl)-6,7-dihydro-5H-pyrrolo[3,4-b]pyridin-5-one], for which the EC50 came to 0.155 µM.

With `COc1ccc(OC2CCN(c3nc4c(cc3C#N)C(=O)NC4)CC2)cn1` [Example 223, 2-(4-((6-methoxypyridin-3-yl)oxy)piperidin-1-yl)-5-oxo-6,7-dihydro-5H-pyrrolo[3,4-b]pyridine-3-carbonitrile], the EC50 came to 0.344 µM.

In the case of `COCCOc1ccc(OC2CCN(c3nc4c(c(C)c3C)C(=O)NC4)CC2)cn1` [Example 220, 2-(4-((6-(2-methoxyethoxy)pyridin-3-yl)oxy)piperidin-1-yl)-3,4-dimethyl-6,7-dihydro-5H-pyrrolo[3,4-b]pyridin-5-one], the EC50 came to 0.109 µM.

Source of the values: patent US10329289B2, “6,7-dihydro-5H-pyrrolo[3,4-B]pyridin-5-one allosteric modulators of the M4 muscarinic acetylcholine receptor” (Merck Sharp & Dohme Corp., priority 2015, dated 2019).
